Four molecules from patent US20160305970A1, “CELL LINES AND METHODS FOR MAKING AND USING THEM” (Chromocell Corporation, priority 2008, published 2016) can be followed below.

As a reminder, the EC50 is the concentration that produces a half-maximal response. Read a low EC50 as higher potency in that assay.

In assay [1] the test system is GABAA (α1β3γ2s, α2β3γ2s, α3β3γ2s and α5β3γ2s). Kind of assay: In-cell readout assay using halide-sensitive meYFP, GABAA-meYFP-CHO cells. Format: cell-based, human. The settings on record: increasing concentrations of GABA ligand. As to the method: The response of GABAA (subunit combinations of α1β3γ2s (A1), α2β3γ2s (A2), α3β3γ2s (A3) and α5β3γ2s (A5)) expressing CHO cells of the invention to test compounds was evaluated using the following protocol for an in-cell readout assay.
Cells were plated 24 hours prior to assay at 10-25,000 cells per well in 384 well plates in growth media (Ham's F-12 media plus FBS and glutamine). […] The assay plates were then loaded on the FDSS (Hamamatsu Corporation). […] The plates were read for 90 seconds.

The next assay concerns the target T1, GABAA α5β3γ2s (α5) (Homo sapiens, UniProt P18507+P28472+P31644).
T1 construct: expressed in transfected cells
The format is cell-based. The settings on record: CHO cell line α5β3γ2s, membrane potential assay. Here is the method: Cells were plated 24 hours prior to assay at 10-25,000 cells per well in 384 well plates in growth media (Ham's F-12 media plus FBS and glutamine). […] Incubation was for 1 hour, followed by plate loading onto the high throughput fluorescent plate reader (Hamamastu FDSS). […] The plates were read for 90 seconds.

A further assay deals with human CFTR. In words: Fluorescence membrane potential assay, stable CFTR-expressing CHO cell line. The settings on record: stable CFTR-expressing cell line, 15,000 cells/well, 384-well plate. Format: cell-based. As to the method: Populations of cells were tested using functional criteria. Membrane potential dye kits (Molecular Devices, MDS) were used according to manufacturer's instructions. Cells were tested at varying densities in 384-well plates (i.e., 12.5×10^3 to 20×10^3 cells/per well) and responses were analyzed. Time between cell plating and assay read was tested. Dye concentration was also tested. Dose response curves and Z' scores were both calculated as part of the assessment of potential functionality. CHO cell lines stably expressing CFTR were maintained under standard cell culture conditions in Ham's F12 medium supplemented with 10% fetal bovine serum and glutamine. On the day before assay, the cells were harvested from stock plates and plated into black clear-bottom 384 well assay plates. The assay plates were maintained in a 37° C. cell culture incubator under 5% CO2 for 22-24 hours. […] For forskolin dose-response experiments, cells of the produced stable CFTR-expressing cell lines, plated at a density of 15,000 cells/well in a 384-well plate were challenged with increasing concentration of forskolin, a known CFTR agonist. The cellular response as a function of changes in cell fluorescence was monitored over time by a fluorescent plate reader (Hamamatsu FDSS). […]-1742 (2001)), indicating the potency of the clone.

In assay [2] the target is human GC-C (guanylate cyclase 2C, GUCY2C) (human) (UniProt P25092). Kind of assay: cell-based or functional assay.
human GC-C (guanylate cyclase 2C, GUCY2C) (human), sequence (P25092 24-1073): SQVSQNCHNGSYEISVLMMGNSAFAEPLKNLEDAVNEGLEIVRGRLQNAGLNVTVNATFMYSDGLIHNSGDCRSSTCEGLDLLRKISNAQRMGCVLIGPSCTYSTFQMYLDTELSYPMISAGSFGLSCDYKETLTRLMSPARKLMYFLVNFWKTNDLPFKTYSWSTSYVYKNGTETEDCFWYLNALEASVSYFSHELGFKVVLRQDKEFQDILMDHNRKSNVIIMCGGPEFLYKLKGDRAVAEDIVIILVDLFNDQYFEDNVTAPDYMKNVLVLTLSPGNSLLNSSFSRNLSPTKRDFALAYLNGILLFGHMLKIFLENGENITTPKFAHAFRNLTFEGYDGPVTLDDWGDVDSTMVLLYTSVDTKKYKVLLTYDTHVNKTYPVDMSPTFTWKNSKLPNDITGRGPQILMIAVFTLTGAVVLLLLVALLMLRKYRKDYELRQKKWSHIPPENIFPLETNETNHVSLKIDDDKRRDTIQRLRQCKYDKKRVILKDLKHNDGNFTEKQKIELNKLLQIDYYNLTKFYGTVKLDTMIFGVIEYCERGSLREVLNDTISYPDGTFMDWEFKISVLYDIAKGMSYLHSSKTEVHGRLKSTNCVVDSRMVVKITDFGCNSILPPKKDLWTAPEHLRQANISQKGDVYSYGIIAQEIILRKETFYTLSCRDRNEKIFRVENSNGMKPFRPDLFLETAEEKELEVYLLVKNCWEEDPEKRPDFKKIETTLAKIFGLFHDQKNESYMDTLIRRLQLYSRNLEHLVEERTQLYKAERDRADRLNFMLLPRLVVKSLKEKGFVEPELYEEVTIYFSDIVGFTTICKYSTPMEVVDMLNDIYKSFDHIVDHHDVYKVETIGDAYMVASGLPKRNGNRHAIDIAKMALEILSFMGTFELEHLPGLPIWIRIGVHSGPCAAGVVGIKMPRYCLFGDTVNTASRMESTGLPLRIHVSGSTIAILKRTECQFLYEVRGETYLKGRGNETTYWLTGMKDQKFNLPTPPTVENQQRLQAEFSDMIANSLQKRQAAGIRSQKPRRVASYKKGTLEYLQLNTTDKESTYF

T1 sequence (P31644 32-462): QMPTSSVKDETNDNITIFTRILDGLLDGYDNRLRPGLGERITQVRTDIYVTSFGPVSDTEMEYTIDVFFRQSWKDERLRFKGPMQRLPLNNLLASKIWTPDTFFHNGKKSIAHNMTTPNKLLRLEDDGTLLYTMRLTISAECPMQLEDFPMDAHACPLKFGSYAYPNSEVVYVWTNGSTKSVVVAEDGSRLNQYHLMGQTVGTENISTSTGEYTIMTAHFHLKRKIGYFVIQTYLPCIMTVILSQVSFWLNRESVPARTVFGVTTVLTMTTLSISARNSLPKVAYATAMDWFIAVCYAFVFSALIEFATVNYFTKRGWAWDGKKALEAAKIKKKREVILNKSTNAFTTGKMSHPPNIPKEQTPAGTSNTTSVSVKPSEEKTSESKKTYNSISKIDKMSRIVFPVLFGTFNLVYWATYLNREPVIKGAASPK
T1 sequence (P28472 26-473): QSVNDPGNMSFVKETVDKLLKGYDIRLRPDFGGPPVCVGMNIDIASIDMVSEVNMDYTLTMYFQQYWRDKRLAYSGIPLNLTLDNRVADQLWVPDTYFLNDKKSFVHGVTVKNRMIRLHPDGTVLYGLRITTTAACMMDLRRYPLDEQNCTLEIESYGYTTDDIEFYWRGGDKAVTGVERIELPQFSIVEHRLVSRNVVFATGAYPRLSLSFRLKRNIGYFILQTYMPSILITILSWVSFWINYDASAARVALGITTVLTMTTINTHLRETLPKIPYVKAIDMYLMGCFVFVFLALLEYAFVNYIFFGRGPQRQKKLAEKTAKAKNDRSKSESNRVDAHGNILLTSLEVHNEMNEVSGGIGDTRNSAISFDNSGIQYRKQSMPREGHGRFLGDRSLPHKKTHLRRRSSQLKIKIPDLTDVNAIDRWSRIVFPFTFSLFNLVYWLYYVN
T1 sequence (P18507 40-467 isoform P18507-1 limits assumed): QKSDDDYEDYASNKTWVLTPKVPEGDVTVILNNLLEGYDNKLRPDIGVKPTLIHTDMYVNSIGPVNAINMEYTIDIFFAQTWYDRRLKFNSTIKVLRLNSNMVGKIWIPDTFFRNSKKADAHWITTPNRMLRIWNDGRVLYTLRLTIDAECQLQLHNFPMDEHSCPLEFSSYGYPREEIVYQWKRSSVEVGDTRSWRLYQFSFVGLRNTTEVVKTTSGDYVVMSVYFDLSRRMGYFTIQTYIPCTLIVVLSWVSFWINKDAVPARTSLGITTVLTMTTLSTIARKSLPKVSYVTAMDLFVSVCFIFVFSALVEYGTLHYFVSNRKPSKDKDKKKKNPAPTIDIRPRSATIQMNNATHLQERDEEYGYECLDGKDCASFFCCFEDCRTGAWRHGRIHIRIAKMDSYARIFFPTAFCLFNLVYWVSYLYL

In the case of `NCCCC(=O)O` [GABA], the meYFP signal response result in assay [1] was “increasing quench of meYFP signal”.
In the case of `COc1cc(/C=C(\C#N)C(=O)c2ccc(O)c(O)c2)cc(I)c1O` [I-OMe Tyrphostin 538], the “EC50 Values α5” value at GABAA α5β3γ2s (α5) was “α5 Not active”.
As for `C=C[C@@]1(C)CC(=O)[C@]2(O)[C@@]3(C)[C@@H](O)CCC(C)(C)[C@@H]3[C@H](O)[C@H](OC(C)=O)[C@@]2(C)O1` [forskolin], the EC50 in the assay on human CFTR amounted to 256 nM.
With guanylin (peptide), in assay [2], the EC50 of the cellular response (absorbance as a function of changes in cGMP levels, Direct Cyclic GMP Enzyme Immunoassay Kit) to increasing guanylin was found to be 1.1 nM and the level of cGMP was determined as 6 pmol/mL.
